Test results reported in patent US8431577B2, “Crystalline form of eszopiclone, composition, preparation and uses thereof” (Tianjin Tasly Group Co., Ltd., priority 2008, dated 2013).

Legend:
[1] = High temperature (60° C.) stability test; conditions: for Content (%) / Related substances (%) Levozopiclone / Related substances (%) Other impurities: High temperature (60° C.)
Description: (§1) The crystalline form of S-zopiclone of the present invention was introduced into an open and colorless transparent weighing-bottle batch by batch, and placed in a thermostat container (60° C.) for 10 days. The specimens were sampled on the 5th and 10th day respectively to measure their stability in accordance with the key stability-relevant items.

Male Long-Evans rats = experiment: Maze test; format: in vivo, rat
Description: Male Long-Evans rats (weighing 250˜275 g) were adopted, divided into 3 groups, and fed in a 12-hour light-dark cycle. After one week of feeding, the experiment was carried out.

[2] = Solubility test (Chinese Pharmacopoeia 2000 general notice); format: physicochemical; conditions: 25±2° C.
Description: Solubility test had been carried out by common solvents in accordance with the method of the GENERAL NOTICE in Chinese Pharmacopoeia (2000 Edition).
Test method: an appropriate amount of fine powder of the crystalline form of S-zopiclone was weighed accurately, into which a certain amount of solvent was added with an accuracy of ±2%. At a temperature of 25±2° C., the solution was shaken violently for 30 seconds, which is repeated at 5-minute intervals. The solubility behavior within 30 minutes had been observed.

[3] = Safety after single oral administration in healthy volunteers; format: in vivo, human
Description: Safety indices: a series of indices were measured when conducting screening and 24 hours after administration, including vital signs, physical examination, ECG and laboratory test. During the test, adverse event was recorded on time.
Safety: meaningful clinical safety indices are tabulated according to the type and the frequency thereof.
Bitter taste in mouth was reported as severe adverse reaction by a majority of subjects (25%˜40%), and another adverse reaction was dizziness and headache. […] Two subjects in the group of the dose of 12 mg/kg BW experienced the state of delirium, including talkativeness, hyperactivity and unconsciousness. […] Within 12 hours after administration, all adverse reactions disappeared without special treatment.

[4] = High humidity (25° C., RH 92.5%) stability test; format: physicochemical; conditions: for Content (%) / Related substances (%) Levozopiclone / Related substances (%) Other impurities: High humidity (92.5%), 25° C.; for Weight gain: high humidity 25° C., RH 92.5%
Description: as §1, with “closed vessel (KNO3 saturated solution, RH: 92.5%)” for “thermostat container (60° C.)”, “items. Meanwhile, the weight of the tested drug pre-and post test was measured accurately.” for “items.”

CN1CCN(C(=O)O[C@H]2c3nccnc3C(=O)N2c2ccc(Cl)cn2)CC1 [crystalline form of S-zopiclone, (+)-(S)-(4-methylpiperazine-1-carboxylate)(6-(5-chloropyridinyl-2-yl)-7-carbonyl-6,7-dihydro-5-H-pyrrolo[3,4-b]pyrazin-5-yl ester)]
stability (character, melting point, related substances versus 0th day) ([1]; 10 days of high-temperature (60° C.)): stable | Content (%) ([1]; day 0): 100.06% | Related substances (%) Levozopiclone ([1]; day 0): 0.06% | Related substances (%) Other impurities ([1]; day 0): 0.09% | Content (%) ([1]; day 5): 100.01% | Related substances (%) Levozopiclone ([1]; day 5): 0.08% | Related substances (%) Other impurities ([1]; day 5): 0.11% | Content (%) ([1]; day 10): 100.12% | Related substances (%) Levozopiclone ([1]; day 10): 0.07% | Related substances (%) Other impurities ([1]; day 10): 0.12% | residence time in the open arm (Male Long-Evans rats; 5 mg/Kg body weight): significantly increase | effect on total entries, open arm entries and close arm entries (Male Long-Evans rats; 10 mg/Kg body weight): significant effect | residence time in the open arm (Male Long-Evans rats; 10 mg/Kg body weight): significantly increase | Required amount of the solvent ([2]; acetone, 10 mg sample): 2.0 mL | Required amount of the solvent for dissolving 1 g of the sample ([2]; acetone): 200 mL | Solubility ([2]; acetone): slightly soluble | Required amount of the solvent ([2]; anhydrous ether, 10 mg sample): 90.0 mL | Required amount of the solvent for dissolving 1 g of the sample ([2]; anhydrous ether): 9000 mL | Solubility ([2]; anhydrous ether): very slightly soluble | Required amount of the solvent ([2]; chloroform, 100 mg sample): 0.6 mL | Required amount of the solvent for dissolving 1 g of the sample ([2]; chloroform): 6 mL | Solubility ([2]; chloroform): freely soluble | Required amount of the solvent ([2]; ethanol, 10 mg sample): 15.0 mL | Required amount of the solvent for dissolving 1 g of the sample ([2]; ethanol): 1500 mL | Solubility ([2]; ethanol): very slightly soluble | Required amount of the solvent ([2]; ethyl acetate, 10 mg sample): 6.0 mL | Required amount of the solvent for dissolving 1 g of the sample ([2]; ethyl acetate): 600 mL | Solubility ([2]; ethyl acetate): slightly soluble | Required amount of the solvent ([2]; hydrochloric acid (0.1 mol/L), 10 mg sample): 0.7 mL | Required amount of the solvent for dissolving 1 g of the sample ([2]; hydrochloric acid (0.1 mol/L)): 70 mL | Solubility ([2]; hydrochloric acid (0.1 mol/L)): Soluble | Required amount of the solvent ([2]; methanol, 10 mg sample): 5.0 mL | Required amount of the solvent for dissolving 1 g of the sample ([2]; methanol): 500 mL | Solubility ([2]; methanol): slightly soluble | Required amount of the solvent ([2]; water, 10 mg sample): 200 mL | Required amount of the solvent for dissolving 1 g of the sample ([2]; water): 20000 mL | Solubility ([2]; water): practically insoluble | subjects experiencing the state of delirium (talkativeness, hyperactivity, unconsciousness) ([3]; 12 mg dose group): Two subjects | types and frequencies of adverse reactions versus low and moderate dose groups ([3]; high dose group (12 mg)): more types and higher frequencies of adverse reactions | time after administration within which all adverse reactions disappeared ([3]; without special treatment): ≤ 12 h | Content (%) ([4]; day 0): 100.06% | Related substances (%) Levozopiclone ([4]; day 0): 0.06% | Related substances (%) Other impurities ([4]; day 0): 0.09% | Content (%) ([4]; day 5): 99.86% | Related substances (%) Levozopiclone ([4]; day 5): 0.08% | Related substances (%) Other impurities ([4]; day 5): 0.11% | Content (%) ([4]; day 10): 99.91% | Related substances (%) Levozopiclone ([4]; day 10): 0.07% | Related substances (%) Other impurities ([4]; day 10): 0.11% | Weight gain ([4]; 5th day): 0.07% | Weight gain ([4]; 10th day): 0.08%
